Reference: patent US6380218B1, “Nicotinamide derivatives” (Pfizer Inc, priority 1997, dated 2002)

Row | SMILES | melting point [°C]
1 | Cc1ccc(CNC(=O)c2cccnc2Oc2cncc(Cl)c2)cc1 [Example 48, 2-(5-Chloro-pyridin-3-yloxy)-N-(4-methyl-benzyl)-nicotinamide] | 119 to 121
2 | NS(=O)(=O)N1CCC(CNC(=O)c2cccnc2Oc2cccnc2)CC1 [Example 179, 2-(Pyridin-3-yloxy)-N-(1-sulfamoyl-piperidin-4-ylmethyl)-nicotinamide] | 165 to 166
3 | CC(=O)c1cccc(Oc2ncccc2C(=O)NCC2CCC(C(C)(C)O)CC2)c1 (centres unmarked) [Example 242, 2-(3-Acetyl-phenoxy)-N-[4-(1-hydroxy-1-methyl-ethyl)-cyclohexylmethyl]-nicotinamide] | 105 to 107
4 | Cc1cc(CNC(=O)c2cccnc2Oc2ccc(F)cc2)cc(C)c1O [Example 78, 2-(4-Fluoro-phenoxy)-N-(4-hydroxy-3,5-dimethyl-benzyl)-nicotinamide] | 142 to 144
5 | CC(C)(O)c1ccc(CNC(=O)c2cccnc2Oc2ccc(F)c(C#N)c2)cc1 [Example 243, 2-(3-Cyano-4-fluoro-phenoxy)-N-[4-(1-hydroxy-1-methyl-ethyl)-benzyl]-nicotinamide] | 147 to 149
6 | Cc1noc2ccc(Oc3ncccc3C(=O)NCC3CCC(C(C)(C)O)CC3)cc12 (centres unmarked) [Example 315, N-(4-(1-Hydroxy-1-methyl-ethyl)-cyclohexylmethyl)-2-(3-methyl-benzo(d)-isoxazol-5-yloxy)-nicotinamide] | 135 to 137
7 | O=C(NCC1CCC=CO1)c1cccnc1Oc1ccc(F)cc1 (centres unmarked) [Example 195, N-(3,4-Dihydro-2H-pyran-2-ylmethyl)-2-(4-fluoro-phenoxy)-nicotinamide] | 55 to 57
8 | CC(O)C1CCC(CNC(=O)c2cccnc2Oc2ccc(F)c(C#N)c2)CC1 (single isomer, unassigned; (-)) [Example 320, (−)-2-(3-Cyano-4-fluoro-phenoxy)-N-[4-(1-hydroxy-ethyl)-cyclohexylmethyl]-nicotinamide] | 134 to 135
9 | CC(C)(O)c1ccc(CNC(=O)c2cccnc2Oc2ccc(F)c(F)c2)cc1 [Example 231, 2-(3,4-Difluoro-phenoxy)-N-[4-(1-hydroxy-1-methyl-ethyl)-benzyl]-nicotinamide] | 98 to 100
10 | CC(C)(O)C1CCC(CNC(=O)c2cccnc2Oc2ccc(F)c(C#N)c2)CC1 (centres unmarked) [Example 322, 2-(3-Cyano-4-fluoro-phenoxy)-N-[4-(1-hydroxy-1-methyl-ethyl)-cyclohexylmethyl]-nicotinamide] | 85 to 88
11 | CC(C)(C)C(=O)Oc1ccc(CNC(=O)c2cccnc2Oc2ccc(F)cc2)cc1 [Example 130, 2,2-Dimethyl-propionic acid 4-({[2-(4-fluoro-phenoxy)-pyridine-3-carbonyl]-amino}-methyl)-phenyl ester] | 91 to 93
12 | O=C(NCC1CCCCC1)c1cccnc1Oc1cncc(Cl)c1 [Example 58, 2-(5-Chloro-pyridin-3-yloxy)-N-cyclohexylmethyl-nicotinamide] | 95 to 97
13 | CCOC(=O)C1CCC(CNC(=O)c2cccnc2Oc2cccc(C(N)=O)c2)CC1 (centres unmarked) [Example 295, 4-({[2-(3-Carbamoyl-phenoxy)-pyridine-3-carbonyl]-amino}-methyl)-cyclohexanecarboxylic acid ethyl ester] | 160 to 162
14 | O=C(NCc1ccc(N2CCCCC2)cc1)c1cccnc1Oc1ccc(F)cc1 [Example 90, 2-(4-Fluoro-phenoxy)-N-(4-piperidin-1-yl-benzyl)-nicotinamide] | 118 to 119
15 | N#Cc1cccc(Oc2ncccc2C(=O)NCc2ccccc2Cl)c1 [Example 110, N-(2-Chloro-benzyl)-2-(3-cyano-phenoxy)-nicotinamide] | 135 to 137
16 | CC(=O)c1cc(Oc2ncccc2C(=O)NC[C@H]2CC[C@H](C(C)(C)O)CC2)ccc1Cl [Example 309, 2-(3-Acetyl-4-chloro-phenoxy)-N-(trans-4-(1-hydroxy-1-methyl-ethyl)-cyclohexylmethyl)-nicotinamide] | 106 to 108
17 | COc1cccc(Oc2ncccc2C(=O)NCc2ccc(C(C)(C)O)cc2)c1 [Example 201, N-[4-(1-Hydroxy-1-methyl-ethyl)-benzyl]-2-(3-methoxy-phenoxy)-nicotinamide] | 69 to 71
18 | CC(NC(=O)c1cccnc1Oc1ccc(F)cc1)c1ccc(Cl)s1 (centres unmarked) [Example 8, N-[1-(5-Chloro-thiophen-2-yl)-ethyl]-2-(4-fluoro-phenoxy)-nicotinamide] | 87 to 89
19 | O=C(Cc1ccccc1Cl)Nc1cccnc1Oc1ccc(F)cc1 [Example 136, 2-(2-Chloro-phenyl)-N-[2-(4-fluoro-phenoxy)-pyridin-3-yl]-acetamide] | 73 to 75
20 | N#Cc1ccc(Oc2ncccc2C(=O)NCc2ccccc2Cl)cc1 [Example 119, N-(2-Chloro-benzyl)-2-(4-cyano-phenoxy)-nicotinamide] | 112 to 114
21 | O=C(NCc1c(F)cc(F)cc1F)c1cccnc1Oc1ccc(F)cc1 [Example 67, 2-(4-Fluoro-phenoxy)-N-(2,4,6-trifluoro-benzyl)-nicotinamide] | 128 to 130
22 | O=C(NCc1ccccc1Cl)c1cccnc1Oc1cccc(F)c1 [Example 11, N-(2-Chloro-benzyl)-2-(3-fluoro-phenoxy)-nicotinamide] | 115 to 117
23 | O=C1CCN(c2ccc(CNC(=O)c3cccnc3Oc3ccc(F)cc3)cc2)CC1 [Example 92, 2-(4-Fluoro-phenoxy)-N-[4-(4-oxo-piperidin-1-yl)-benzyl]-nicotinamide] | 138 to 139

Second part, the molecule after the results:

Row | melting point [°C] | SMILES
24 | 106 to 108 | CC(=O)c1ccc(CNC(=O)c2cccnc2Oc2ccc(F)cc2)cc1 [Example 285, N-[4-Acetyl-benzyl)-2-(4-fluoro-phenoxy)-nicotinamide]
25 | 159 | Cc1cnc(CNC(=O)c2cccnc2Oc2ccc(F)cc2)cn1 [Example 209, 2-(4-Fluoro-phenoxy)-N-(5-methyl-pyrazin-2-ylmethyl)-nicotinamide]
26 | 134 to 135 | O=C(NCc1cccc2[nH]ccc12)c1cccnc1Oc1cccnc1 [Example 180, N-(1H-Indol-4-ylmethyl)-2-(pyridin-3yloxy)-nicotinamide]
27 | 126 to 128 | CN(CC(=O)c1cccnc1Oc1ccc(F)cc1)c1ccccc1 [Example 270, 1-[2-(4-Fluoro-phenoxy)-pyridin-3-yl]-2-(methyl-phenyl-amino)-ethanone]
28 | 64 to 65 | CC[C@H](C)NC(=O)c1cccnc1Oc1cccnc1 [Example 176, (S)-N-sec-Butyl-2-(pyridin-3-yloxy)-nicotinamide]
29 | 222 to 223 | NS(=O)(=O)c1ccc(CNC(=O)c2cccnc2Oc2ccc(F)cc2)cc1 [Example 193, 2-(4-Fluoro-phenoxy)-N-(4-sulfamoyl-benzyl)-nicotinamide]
30 | 69 to 70 | O=C(CCc1cc(F)cc(F)c1)c1cccnc1Oc1ccc(F)cc1 [Example 254, 3-(3,5-Difluoro-phenyl)-1-[2-(4-fluoro-phenoxy)-pyridin-3-yl]-propan-1-one]
31 | 139 to 141 | CC(C)(O)c1ccc(CNC(=O)c2cccnc2Oc2cccnc2)cc1Cl [Example 38, N-[3-Chloro-4-(1-hydroxy-1-methyl-ethyl)-benzyl]-2-(pyridin-3-yloxy)-nicotinamide]
32 | 73 to 74 | COc1ccc(CCC(=O)c2cccnc2Oc2ccc(F)cc2)cc1 [Example 249, 1-[2-(4-Fluorophenoxy)-3-pyridinyl]-3-(4-methoxyphenyl)-1-propanone]
33 | 94 to 96 | O=C(NCc1nccs1)c1cccnc1Oc1cccnc1 [Example 24, 2-(Pyridin-3-yloxy)-N-thiazol-2-ylmethyl-nicotinamide]
34 | 92 to 94 | CC(O)c1ccc(CNC(=O)c2cccnc2Oc2cccnc2)s1 (centres unmarked) [Example 160, N-[5-(1-Hydroxy-ethyl)-thiophen-2-ylmethyl]-2-(pyridin-3yloxy)-nicotinamide]
35 | 95 to 97 | O=C(NCc1ccc(C2(O)CCC2)cc1)c1cccnc1Oc1ccc(F)cc1 [Example 85, 2-(4-Fluoro-phenoxy)-N-[4-(1-hydroxy-cyclobutyl)-benzyl]-nicotinamide]
36 | 118 to 120 | O=C(NCc1cc(Cl)cs1)c1cccnc1Oc1cccnc1 [Example 21, N-(4-Chloro-thiophen-2-ylmethyl)-2-(pyridin-3-yloxy)-nicotinamide]
37 | 61 to 62 | CCCCCNC(=O)c1cccnc1Oc1cccnc1 [Example 175, N-Pentyl-2-(pyridin-3-yloxy)-nicotinamide]
38 | 98 to 100 | O=C(NCc1ccc(OCC(F)(F)F)cc1)c1cccnc1Oc1cccnc1 [Example 25, 2-(Pyridin-3-yloxy)-N-[4-(2,2,2-trifluoro-ethoxy)-benzyl]-nicotinamide]
39 | 125 to 127 | COC(=O)c1ccc(CNC(=O)c2cccnc2Oc2cccnc2)cc1 [Example 37, 4-({[2-(Pyridin-3-yloxy)-pyridine-3-carbonyl]-amino}-methyl)-benzoicacid methyl ester]
40 | 180 to 182 | O=C1Cc2cc(CNC(=O)c3cccnc3Oc3ccc(F)cc3)ccc2N1 [Example 73, 2-(4-Fluoro-phenoxy)-N-(2-oxo-2,3-dihydro-1H-indol-5-ylmethyl)-nicotinamide]
41 | 130 to 131 | O=C(NCc1ccc2c(c1)OCO2)c1cccnc1Oc1cccnc1 [Example 182, N-Benzo[1,3]dioxol-5-ylmethyl-2-(pyridin-3-yloxy)-nicotinamide]
42 | 62 to 64 | O=C(CCc1ccc(F)cc1)c1cccnc1Oc1cccnc1 [Example 258, 3-(4-Fluoro-phenyl)-1-[2-(pyridin-3-yloxy)-pyridin-3-yl]-propan-1-one]
43 | 60 to 62 | C[C@@H](NC(=O)c1cccnc1Oc1ccc(F)cc1)c1cccs1 [Example 7, (R)(+)2-(4-Fluoro-phenoxy)-N-(1-thiophen-2-yl-ethyl)-nicotinamide]
44 | 110 to 112 | O=C(NCc1ccc(Cl)s1)c1cccnc1Oc1cccnc1 [Example 16, N-(5-Chloro-thiophen-2-ylmethyl)-2-(pyridin-3-yloxy)-nicotinamide]
